According to ChEMBL document CHEMBL3272189, “Orally active esters of cephalosporin antibiotics. Synthesis and biological properties of acyloxymethyl esters of 7-(D-2-amino-2-phenylacetamido)-3-[5-methyl-(1,3,4-thiadiazol-2-yl)thiomethyl]-3-cephem-4-carboxylic acid” (J Med Chem, 1977):
Converted amounts (≈) assume the structure as drawn.

Key:
[1] = Drug excretion in Lai:COX (Standard)BR mouse urine at 17 mg/kg, po after 5 mins; type: ADME, organism-based; parameters: dose 17 mg/kg, route oral; conditions: read-out: Drug excretion
[2] = Drug excretion in Lai:COX (Standard)BR mouse urine at 17 mg/kg, po after 60 mins; type: ADME, organism-based; parameters: dose 17 mg/kg, route oral; conditions: read-out: Drug excretion
[3] = Half life in 0.1 M sodium phosphate buffer at 50 ug/ml at pH 4.5; type: physicochemical
[4] = Drug absorption in Lai:COX (Standard)BR mouse assessed as compound remaining in gastrointestinal tract at 17 mg/kg, po after 20 mins; type: ADME, organism-based; parameters: dose 17 mg/kg, route oral; conditions: read-out: Stability
[5] = Drug excretion in Lai:COX (Standard)BR mouse urine at 17 mg/kg, po after 20 mins; type: ADME, organism-based; parameters: dose 17 mg/kg, route oral; conditions: read-out: Drug excretion
[6] = Drug excretion in Lai:COX (Standard)BR mouse urine at 17 mg/kg, po after 100 mins; type: ADME, organism-based; parameters: dose 17 mg/kg, route oral; conditions: read-out: Drug excretion
[7] = Drug excretion in Lai:COX (Standard)BR mouse urine at 17 mg/kg, po after 80 mins; type: ADME, organism-based; parameters: dose 17 mg/kg, route oral; conditions: read-out: Drug excretion
[8] = Drug excretion in Lai:COX (Standard)BR mouse urine at 17 mg/kg, po after 40 mins; type: ADME, organism-based; parameters: dose 17 mg/kg, route oral; conditions: read-out: Drug excretion
[9] = Half life in 0.1 M sodium phosphate buffer at 50 ug/ml at pH 7.5; type: physicochemical
[10] = Half life in 0.1 M sodium phosphate buffer at 50 ug/ml at pH 6.5; type: physicochemical
[11] = Drug absorption in Lai:COX (Standard)BR mouse assessed as compound remaining in gastrointestinal tract at 17 mg/kg, po after 40 mins; type: ADME, organism-based; parameters: dose 17 mg/kg, route oral; conditions: read-out: Stability
[12] = Drug excretion in Lai:COX (Standard)BR mouse urine at 17 mg/kg, po after 120 mins; type: ADME, organism-based; parameters: dose 17 mg/kg, route oral; conditions: read-out: Drug excretion
[13] = Drug excretion in Lai:COX (Standard)BR mouse urine at 17 mg/kg, sc after 5 mins; type: ADME, organism-based; parameters: dose 17 mg/kg, route subcutaneous; conditions: read-out: Drug excretion
Escherichia coli = test: Antibacterial activity against Escherichia coli assessed as growth inhibition by gradient-plate assay; type: functional
[14] = Drug excretion in Lai:COX (Standard)BR mouse urine at 17 mg/kg, sc after 60 mins; type: ADME, organism-based; parameters: dose 17 mg/kg, route subcutaneous; conditions: read-out: Drug excretion
Blood = test: Drug uptake in Lai:COX (Standard)BR mouse blood at 17 mg/kg, po; type: ADME, organism-based; parameters: dose 17 mg/kg, route oral; conditions: in vivo
Serratia marcescens = test: Antibacterial activity against Serratia marcescens assessed as growth inhibition by gradient-plate assay; type: functional
[15] = Drug excretion in Lai:COX (Standard)BR mouse urine at 17 mg/kg, sc after 80 mins; type: ADME, organism-based; parameters: dose 17 mg/kg, route subcutaneous; conditions: read-out: Drug excretion
Klebsiella pneumoniae = test: Antibacterial activity against Klebsiella pneumoniae assessed as growth inhibition by gradient-plate assay; type: functional
Klebsiella aerogenes = test: Antibacterial activity against Enterobacter aerogenes assessed as growth inhibition by gradient-plate assay; type: functional
Shigella sp. = test: Antibacterial activity against Shigella sp. assessed as growth inhibition by gradient-plate assay; type: functional
[16] = Antibacterial activity against Salmonella heidelberg assessed as growth inhibition by gradient-plate assay; type: functional, Salmonella enterica subsp. enterica serovar Heidelberg; conditions: Salmonella enterica
[17] = Drug excretion in Lai:COX (Standard)BR mouse urine at 17 mg/kg, sc after 100 mins; type: ADME, organism-based; parameters: dose 17 mg/kg, route subcutaneous; conditions: read-out: Drug excretion
[18] = Drug excretion in Lai:COX (Standard)BR mouse urine at 17 mg/kg, sc after 20 mins; type: ADME, organism-based; parameters: dose 17 mg/kg, route subcutaneous; conditions: read-out: Drug excretion
Staphylococcus aureus = test: Antibacterial activity against penicillin-resistant, coagulase-positive Staphylococcus aureus assessed as growth inhibition by gradient-plate assay; type: functional
[19] = Drug excretion in Lai:COX (Standard)BR mouse urine at 17 mg/kg, sc after 40 mins; type: ADME, organism-based; parameters: dose 17 mg/kg, route subcutaneous; conditions: read-out: Drug excretion
[20] = Drug excretion in Lai:COX (Standard)BR mouse urine at 17 mg/kg, sc after 120 mins; type: ADME, organism-based; parameters: dose 17 mg/kg, route subcutaneous; conditions: read-out: Drug excretion

Structure (SMILES)	dose excreted at 1 h [2] [%]	half-life at 50 ug/ml [3] [h]	remaining at 20 min [4] [%]	dose excreted at 20 min [5] [%]	dose excreted at 100 min [6] [%]	dose excreted at 80 min [7] [%]	dose excreted at 40 min [8] [%]	half-life at 50 ug/ml [9] [min]	half-life at 50 ug/ml [10] [min]	remaining at 40 min [11] [%]	dose excreted at 2 h [12] [%]	MIC (Escherichia coli) [mg/L]	MIC (Serratia marcescens) [mg/L]	MIC (Klebsiella pneumoniae) [mg/L]	MIC (Klebsiella aerogenes) [mg/L]	MIC (Shigella sp.) [mg/L]	MIC [16] [mg/L]	MIC (Staphylococcus aureus) [mg/L]	also measured
Cc1nnc(SCC2=C(C(=O)OCOC(=O)C(C)(C)C)N3C(=O)[C@@H](NC(=O)[C@H](N)c4ccccc4)[C@H]3SC2)s1.Cl	43.2	32	40.5	20.8	41.8	48.2	38.9	25	45	25	41.5	–	–	–	–	–	–	–	dose excreted at 5 min [1]: 3.6%
Cc1nnc(SCC2=C(C(=O)O)N3C(=O)[C@@H](NC(=O)[C@H](N)c4ccccc4)[C@H]3SC2)s1	13.2	47	81.2	2.8	22.4	17.5	8.4	54	76	67.5	14.1	1 (≈ 2.09 µM)	26.5 (≈ 55.5 µM)	0.6 (≈ 1.26 µM)	0.8 (≈ 1.68 µM)	1 (≈ 2.09 µM)	1 (≈ 2.09 µM)	0.7 (≈ 1.47 µM)	dose excreted at 5 min [13]: 2.8%; dose excreted at 1 h [14]: 50.7%; Drug uptake (Blood): Active; dose excreted at 80 min [15]: 56.7%; dose excreted at 100 min [17]: 54.1%; dose excreted at 20 min [18]: 25%; dose excreted at 40 min [19]: 46.5%; dose excreted at 2 h [20]: 54.1%
CC(=O)OCOC(=O)C1=C(CSc2nnc(C)s2)CS[C@@H]2[C@H](NC(=O)[C@H](N)c3ccccc3)C(=O)N12.Cl	33.1	27	39.1	20.4	38.3	36.1	32.5	25	60	31.5	36.8	–	–	–	–	–	–	–	–
Cc1nnc(SCC2=C(C(=O)OC3OC(=O)c4ccccc43)N3C(=O)[C@@H](NC(=O)[C@H](N)c4ccccc4)[C@H]3SC2)s1.Cl (stereo not given in full)	35	–	59	8.3	34	30.5	22.1	15	25	35	–	–	–	–	–	–	–	–	–
CC1=C(C(=O)O)N2C(=O)[C@@H](NC(=O)[C@H](N)c3ccccc3)[C@H]2SC1 [CEPHALEXIN ANHYDROUS]	–	–	–	–	–	–	–	–	–	–	–	8.5 (≈ 24.5 µM)	140 (≈ 403 µM)	7 (≈ 20.1 µM)	6.8 (≈ 19.6 µM)	9 (≈ 25.9 µM)	5.5 (≈ 15.8 µM)	4.5 (≈ 13 µM)	–
